# ChEMBL document CHEMBL1201862, “PubChem BioAssay data set” (2004)
# The source made the active and inactive calls.
# Tests used:
# [1] = cytotoxicity dependent on PAX8, dose response, cell-based, plate reader, dry powder (AID 743049); type: functional
# Vero = assay: cells; type: functional; conditions: Chlorocebus sabaeus
# Paired box protein Pax-8 = Paired box protein Pax-8 (Homo sapiens, UniProt Q06710); assay: inhibitors of PAX8-driven TPO luciferase reporter, dose response, RMG-I cells, cherry-pick (AID 687027); type: functional, cell-based;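 note: luciferase reporter driven by Pax8 target thyroperoxidase promoter measured by SteadyGlo luminescence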
# [2] = PAX5 activity inhibitors, dose response, selectivity assay for PAX8 inhibitor project, cell-based, plate reader, dry powder samples (AID 743047); type: functional;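 note: HEK293 cells carrying a Pax5 driven CD19 promoter luciferase reporter; potency of inhibitors that lower reporter luminescence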
# [3] = HepG2 cell cytotoxicity, dose response, cytotoxicity control, ATP luminescence, cherry-pick, activator set 2 (AID 1053143); type: functional, cell-based
# [4] = molecular target: T1, Oxysterols receptor LXR-beta (Homo sapiens, UniProt P55055); type: functional, cell-based;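 note: agonist activity at LXR measured by a cell-based luminescence readout across a dose range, run as a counterscreen for daf-12 agonists; HEK293 cells with Gal4-LXR fusion and GAL4-driven luciferase reporter; potency for activation of Gal4-LXR reporter so compounds are agonists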
# T1 sequence (P55055 whole entry): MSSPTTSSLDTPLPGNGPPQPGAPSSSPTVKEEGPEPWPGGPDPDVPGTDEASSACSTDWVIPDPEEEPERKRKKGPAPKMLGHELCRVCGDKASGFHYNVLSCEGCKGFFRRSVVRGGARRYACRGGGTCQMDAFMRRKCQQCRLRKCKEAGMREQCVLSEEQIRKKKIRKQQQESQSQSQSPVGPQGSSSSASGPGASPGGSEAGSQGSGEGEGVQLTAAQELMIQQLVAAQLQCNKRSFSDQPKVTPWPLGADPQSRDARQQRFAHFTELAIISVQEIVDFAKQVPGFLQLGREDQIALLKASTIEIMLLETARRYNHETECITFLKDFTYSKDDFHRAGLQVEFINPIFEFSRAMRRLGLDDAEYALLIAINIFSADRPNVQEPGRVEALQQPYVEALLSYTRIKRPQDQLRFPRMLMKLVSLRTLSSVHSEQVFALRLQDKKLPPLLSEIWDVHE
# [5] = Luminescence Cell-Based Dose Retest to Confirm Inhibitors of Cancer Stem Cells. [Related pubchem assays (depositor defined):AID2717, AID2721]; type: functional; conditions: Homo sapiens
# [6] = molecular target: Heat shock protein HSP 90-alpha (Homo sapiens, UniProt P07900); type: functional, organism-based
# [7] = molecular target: Luciferin 4-monooxygenase (Photinus pyralis, UniProt P08659); assay: firefly luciferase enzyme inhibitors, dose response, biochemical, luminescence (AID 1891)
# [8] = Luminescence Cell-Based Dose Confirmation HTS to Identify Inhibitors of Platelet Dense Granule Release. [Related pubchem assays: 1663 (Primary HTS), 1678 (Summary of Project)]; type: functional
# cells [9] = type: functional, cell-based
# [10] = molecular target: T2, Trace amine-associated receptor 1 (Homo sapiens, UniProt Q96RJ0); assay: Fluorescence-based cell-based high throughput dose response assay to identify agonists of the human trace amine associated receptor 1 (TAAR1).; type: functional
# T2 sequence (Q96RJ0 whole entry): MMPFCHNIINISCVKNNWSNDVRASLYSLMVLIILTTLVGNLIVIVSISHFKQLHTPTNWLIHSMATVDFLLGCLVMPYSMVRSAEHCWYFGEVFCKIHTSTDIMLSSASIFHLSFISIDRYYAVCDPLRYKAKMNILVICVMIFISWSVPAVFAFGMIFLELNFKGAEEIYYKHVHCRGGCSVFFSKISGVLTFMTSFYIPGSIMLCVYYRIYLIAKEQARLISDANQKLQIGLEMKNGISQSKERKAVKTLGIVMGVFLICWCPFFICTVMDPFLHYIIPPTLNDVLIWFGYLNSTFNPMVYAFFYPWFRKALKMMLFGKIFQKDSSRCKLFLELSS
# [11] = molecular target: T2, Trace amine-associated receptor 1; assay: Counterscreen for agonists of the human trace amine associated receptor 1 (hTAAR1): Fluorescence-based cell-based high throughput dose response assay to identify hTAAR1 agonist that also desensitize TAAR1 receptor response.; type: functional
# cells [12] = type: functional, cell-based; remark: listed apart in the source
# cells [13] = assay: cells
# Fatty acid synthase [14] = molecular target: T3, Fatty acid synthase (Homo sapiens, UniProt P49327); assay: FAS thioesterase domain inhibitors, dose response, biochemical, endpoint fluorescence intensity, uHTS hits (AID 624327); type: functional;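 note: fluorescence from hydrolysis of an O-methyl fluorescein acyl ester substrate by the enzyme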
# Major prion protein = Major prion protein (Homo sapiens, UniProt P04156); type: functional, cell-based
# Fatty acid synthase [15] = molecular target: T3, Fatty acid synthase; assay: FAS thioesterase domain inhibitors, dose response, biochemical, kinetic fluorescence intensity (AID 624326); type: functional;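 note: rate of fluorescence rise from hydrolysis of a fluorogenic O-methyl fluorescein ester substrate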
# Cytochrome P450 2C9 = Cytochrome P450 2C9 (Homo sapiens, UniProt P11712)
# Cytochrome P450 3A4 = Cytochrome P450 3A4 (Homo sapiens, UniProt P08684);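 note: CYP3A4 tested as one member of a cytochrome P450 panel screen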
# Cytochrome P450 2C19 = Cytochrome P450 2C19 (Homo sapiens, UniProt P33261); assay: Cytochrome panel assay with activity outcomes. Panel member name: p450-cyp2c19 Compounds with AC50 equal or less than 10 uM are considered active; type: functional
# [16] = molecular target: Photoreceptor-specific nuclear receptor (Homo sapiens, UniProt Q9Y5X4); type: functional, cell-based;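 note: CHO-S cells with Gal4-NCOR and VP16-NR2E3 two-hybrid luciferase reporter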
# [17] = molecular target: T4, Rac GTPase-activating protein 1 (Homo sapiens, UniProt Q9H0H5); assay: MgcRacGAP GTPase-activating activity inhibitors, confirmation, biochemical, ADP Hunter fluorescence, primary and confirmatory (AID 624330); type: functional
# T4 sequence (Q9H0H5 whole entry): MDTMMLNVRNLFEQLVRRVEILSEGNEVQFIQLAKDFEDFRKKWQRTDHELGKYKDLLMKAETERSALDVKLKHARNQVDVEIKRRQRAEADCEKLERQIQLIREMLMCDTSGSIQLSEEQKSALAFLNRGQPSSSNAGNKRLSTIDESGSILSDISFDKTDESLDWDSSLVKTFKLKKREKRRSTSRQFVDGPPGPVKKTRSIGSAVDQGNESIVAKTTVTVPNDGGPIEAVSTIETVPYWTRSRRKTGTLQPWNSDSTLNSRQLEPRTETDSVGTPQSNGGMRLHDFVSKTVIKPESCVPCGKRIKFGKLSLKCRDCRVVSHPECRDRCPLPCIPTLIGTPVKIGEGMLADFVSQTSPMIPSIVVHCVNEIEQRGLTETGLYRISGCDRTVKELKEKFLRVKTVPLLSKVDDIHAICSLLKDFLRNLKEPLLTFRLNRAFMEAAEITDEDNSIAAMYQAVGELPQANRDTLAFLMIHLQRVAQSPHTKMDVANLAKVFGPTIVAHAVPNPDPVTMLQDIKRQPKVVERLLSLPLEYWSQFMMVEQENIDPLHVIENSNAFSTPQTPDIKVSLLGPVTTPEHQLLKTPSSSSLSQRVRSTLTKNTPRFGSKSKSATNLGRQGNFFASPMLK
# [18] = HeLa cell cytotoxicity, dose response, cytotoxicity control for MgcRacGAP inhibitor project (AID 624300); type: functional
# [19] = molecular target: T5, DNA repair protein RAD52 homolog (Homo sapiens, UniProt P43351); type: functional, biochemical
# T5 sequence (P43351 whole entry): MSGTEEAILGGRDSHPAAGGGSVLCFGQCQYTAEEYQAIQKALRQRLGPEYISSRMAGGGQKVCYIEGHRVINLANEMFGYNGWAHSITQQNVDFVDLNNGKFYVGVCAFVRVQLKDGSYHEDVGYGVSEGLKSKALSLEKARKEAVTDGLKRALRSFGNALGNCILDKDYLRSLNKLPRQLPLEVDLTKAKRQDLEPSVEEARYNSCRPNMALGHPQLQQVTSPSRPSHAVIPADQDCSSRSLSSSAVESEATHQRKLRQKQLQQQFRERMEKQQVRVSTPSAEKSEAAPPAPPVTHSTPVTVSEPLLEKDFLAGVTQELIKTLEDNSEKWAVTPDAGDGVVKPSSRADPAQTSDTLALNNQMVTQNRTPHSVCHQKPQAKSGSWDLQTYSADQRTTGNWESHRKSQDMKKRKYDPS
# [20] = molecular target: T6, DNA repair and recombination protein RAD54-like (Homo sapiens, UniProt Q92698); assay: inhibitors of human RAD54 branch migration, confirmation, biochemical, fluorescence, cherry-picked samples, dose series (AID 651657); type: functional
# T6 sequence (Q92698 whole entry): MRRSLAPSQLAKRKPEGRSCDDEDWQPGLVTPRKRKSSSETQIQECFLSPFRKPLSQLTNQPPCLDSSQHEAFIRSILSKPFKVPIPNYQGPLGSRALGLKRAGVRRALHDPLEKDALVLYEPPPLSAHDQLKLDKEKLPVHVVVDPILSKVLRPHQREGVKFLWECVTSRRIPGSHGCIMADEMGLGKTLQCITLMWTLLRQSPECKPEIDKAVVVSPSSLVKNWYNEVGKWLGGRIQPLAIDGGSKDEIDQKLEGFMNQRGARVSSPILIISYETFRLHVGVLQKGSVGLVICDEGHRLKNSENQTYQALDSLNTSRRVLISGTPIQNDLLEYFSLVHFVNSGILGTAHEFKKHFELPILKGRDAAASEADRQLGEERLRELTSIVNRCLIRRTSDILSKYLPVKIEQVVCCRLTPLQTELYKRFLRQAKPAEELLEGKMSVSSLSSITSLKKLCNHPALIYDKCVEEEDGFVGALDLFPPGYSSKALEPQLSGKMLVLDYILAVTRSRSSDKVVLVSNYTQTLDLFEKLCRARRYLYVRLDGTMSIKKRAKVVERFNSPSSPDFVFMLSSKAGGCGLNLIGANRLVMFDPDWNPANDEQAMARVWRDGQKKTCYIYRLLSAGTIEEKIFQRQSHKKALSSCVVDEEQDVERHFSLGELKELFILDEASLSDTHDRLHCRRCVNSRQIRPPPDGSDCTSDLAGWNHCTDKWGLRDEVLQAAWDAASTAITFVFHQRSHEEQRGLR
# [21] = Late stage assay provider results from the probe development effort to identify inhibitors of the Plasmodium falciparum M18 Aspartyl Aminopeptidase (M18AAP): radiolabel-based cell-based dose response assay to identify compounds that inhibit P. falciparum growth in RBCs, Set 2..; type: functional
# [22] = HepG2 cell cytotoxicity, dose response, cytotoxicity control, plate reader, dry powder samples (AID 1159569); type: functional, cell-based;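 note: inhibitor potency with signal falling toward the positive control level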
# [23] = P. falciparum 3D7-ScDHODH growth inhibitors, dose response, SYBR Green, dry powder samples (AID 1159570); type: functional, cell-based;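 note: parasite growth measured after 72 hours of compound exposure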
# [24] = P. falciparum Dd2 growth inhibitors, dose response, SYBR Green, dry powder samples (AID 1159566); type: functional, cell-based;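 note: potency for growth inhibition with lower SYBR green DNA signal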
# [25] = P. falciparum ATP4 D1247Y mutant growth inhibitors, dose response, NITD609-resistant line, SYBR Green, dry powder (AID 1159571); type: functional, cell-based;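 note: parasites synchronized at ring stage by sorbitol before testing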
# [26] = P. falciparum Dd2 growth inhibitors, dose response, SYBR Green, cherry-picked samples (AID 1159567); type: functional, cell-based
smiles,measurement,setting,value
O=C1/C(=C/c2cccc(Br)c2)SC(=S)N1CCC(=O)N(CCO)c1ccccc1,AC50,[1],34.3 µM (active)
same,CC50,Vero,> 25 µM (active)
same,AC50,Paired box protein Pax-8,8.17 µM (active)
same,AC50,[2],91.4 µM (active)
O=C(NCC1CCCO1)c1ccc2c3n(nc2c1)-c1ccccc1CO3 (stereo not drawn),AC50,[3],> 52 µM (inactive)
O=C(Nc1ccccn1)c1csc2c1CCCC2,EC50,[4],> 67.5 µM (inactive)
CC(Cc1ccccc1)NCCC(c1ccccc1)c1ccccc1 (stereo not drawn),AC50,[5],10 µM (active)
same,AC50,[3],14.8 µM (active)
Oc1ccc(N=Nc2ccc3ccccc3c2)cc1,AC50,[5],3.06 µM (active)
same,AC50,[6],4.38 µM (active)
same,EC50,[7],0.712 µM (active)
same,EC50,[4],> 67.5 µM (inactive)
same,EC50,[8],3.76 µM (active)
COc1cc(CCN)ccc1O,IC50,cells [9],> 29.9 µM (inactive)
same,EC50,[10],2.4 µM (active)
same,IC50,[11],21.6 µM (inactive)
same,EC50,cells [12],> 29.9 µM (inactive)
Cc1ccc(NC(=O)c2cc(S(=O)(=O)N(C)C)ccc2N2CCCC2)cc1F,IC50,cells [13],> 138 µM (inactive)
same,IC50,Fatty acid synthase [14],13.3 µM (active)
same,IC50,Major prion protein,9.92 µM (active)
same,IC50,Fatty acid synthase [15],6.47 µM (active)
O=C(CC(NCCc1ccccc1)C(=O)O)Nc1ccc(O)cc1 (stereo not drawn),IC50,cells [9],> 29.9 µM (inactive)
same,EC50,[10],7.65 µM (active)
same,IC50,[11],> 29.9 µM (inactive)
same,EC50,cells [12],> 29.9 µM (inactive)
O=C(CSc1ncnc2ccccc12)NCCc1ccccc1,IC50,cells [13],> 138 µM (inactive)
same,IC50,Major prion protein,6.69 µM (active)
CC(=O)c1nnn(-c2nc(N)nc(N(c3ccccc3)c3ccccc3)n2)c1C,AC50,Cytochrome P450 2C9,31.6 µM (inconclusive)
same,IC50,cells [13],> 138 µM (inactive)
same,IC50,Major prion protein,1.92 µM (active)
same,AC50,Cytochrome P450 3A4,inconclusive
same,AC50,Cytochrome P450 2C19,25.1 µM (inconclusive)
O=C1C=CC2(O[C@H](c3ccccc3)[C@@H](c3ccccc3)O2)[C@H](Sc2ccccc2O)C1,IC50,[16],4.1 µM (active)
same,AC50,[6],4.16 µM (active)
same,IC50,[17],43.8 µM (active)
same,CC50,[18],50 µM (active)
c1ccc(CCNC2CCCCCC2)cc1,IC50,cells [9],> 29.9 µM (inactive)
same,EC50,[10],0.495 µM (active)
same,IC50,[11],1.72 µM (active)
same,EC50,cells [12],> 29.9 µM (inactive)
COc1cccc(-c2cc3nc(NCCN4CCCC4)n(C)c(=O)c3s2)c1,AC50,[19],5.5 µM (active)
same,AC50,[20],45.4 µM (active)
O=c1[nH]c(=O)n(C2CC(O)C(CO)O2)cc1I (stereo not drawn),EC50,[4],> 67.6 µM (inactive)
COc1ccccc1Nc1c2ccccc2nc2ccccc12,AC50,[20],29.8 µM (active)
COc1ccc(CCN(C)c2ccnc3cc(Cl)ccc23)cc1OC,IC50,[21],5.75 µM (active)
COc1cc(Br)c(CCNc2c3c(nc4ccccc24)CCCC3)cc1OC,IC50,[21],3 µM (active)
COc1ccc(CCN(C)c2ccnc3ccccc23)cc1OC,IC50,[21],12 µM (inactive)
O=C(Oc1cccc(/C=N/NC(=O)c2ccccn2)c1)c1ccc([N+](=O)[O-])cc1,AC50,[3],> 52 µM (inactive)
C[C@@H]1CN([C@H](C)CO)S(=O)(=O)c2ccc(-c3cccc(C(=O)N(C)C)c3)cc2O[C@H]1CN(C)Cc1ccc2c(c1)OCO2,AC50,[22],64.7 µM (active)
same,AC50,[23],2.27 µM (active)
same,AC50,[24],1.3 µM (active)
same,AC50,[25],1.51 µM (active)
same,AC50,[26],2.57 µM (active)
c1cncc(-c2ccc([C@@H]3[C@@H]4CN(Cc5nccs5)C[C@H]3N4)cc2)c1,AC50,[22],79.6 µM (active)
same,AC50,[23],2.97 µM (active)
same,AC50,[24],1.72 µM (active)
same,AC50,[25],2.03 µM (active)
same,AC50,[26],2.15 µM (active)
